Measurements published in patent US20060270643A1, “Hyfroxyflutamide induced pathways related to androgen receptor negative prostate cancer cells” (priority 2002, published 2006).
“Also recorded” adds a separate entry of the source.

Tests used:
DU145 cells = assay: Cell proliferation assay (hemacytometer counting); assay type: cell-based, human
Protocol: 10. […] (A) DU145 cells were seeded in 10% FBS DMEM medium and 24 hours later cells were changed to serum free medium. 48 hours later changed the medium to 0.5% FBS medium and treated with ethanol, HF, or EGF. Every 24 hours, the cells were counted by hemacytometer. […]. […] (B) DU145 cells were seeded and transfected with anti-sense oligonucleotide of Ras (IRIS 2503: 5′-[…]-3′), Raf (IIUS: 5132:5′-[…]-3′) and HIV (5′-[…]-3′) (Chen, G., Oh, S., Monia B. P., and Stacey, D. W., J. Biol. Chem., 271: 28259-28265, 1996, Monia, B. P., et al., Proc. Natl. Acad. Sci. USA, 93: 15481-15484, 1996.) by SuperFect (Qiagen). 24 hour after serum starvation, we changed the cells to medium containing 0.5% FBS, and treated the cells as described in A. Cells were counted by hemacytometer every 24 hours. The cell lysate were blotted with anti-H-Ras and Raf antibodies and β-actin was blotted for loading control.
199. DU145 cells were seeded at 2×10^4/ml on 35 mm plates and allowed to attach overnight. Cells were kept in serum-free DMEM medium for 24 hours, and then media were replaced with DMEM-0.5% FBS and treated as indicated. Cells were trypsinized and counted with a hemacytometer at different times after treatments. For the antisense oligonuleotide experiments, cells were incubated with a fixed ratio of oligonucleotide versus SuperFect (2.5 μl of SuperFect per 100 nM oligo) for 4 hours and then the oligo-containing medium was replaced with DMEM-0.5% FBS. Cells were trypsinized and counted by hemacytometer at indicated times.

[1] = test system: p44/42 MAP kinase (ERK1 and 2); assay: Immunoblot of phosphorylated p44/42 MAP kinase in DU145 cells; assay type: cell-based, human
Protocol: 7. […] (A) DU145 cells were grown in 100 mm dishes and serum-starved for 24 hours. The cells were lysed on ice. Equal amounts of cell lysate were analyzed by 12% SDS-PAGE and subsequent immunoblotted with anti-phospho ERK1/2 and anti-ERK1/2 antibodies. (B) Different cell lines, at 70 to 80% confluence, were lysed and immunoblotted with anti-AR polyclonal antibody, NH27. (C) DU145 cells were pre-incubated with MEK1/2 inhibitor U0126, or U0124 before HF, EGF, and ethanol treatment. Cells were lysed and immunoblotted with anti-phospho ERK1/2 and anti-ERK1/2 antibodies. (D) CWR2 and (E) PC3-AR cells were grown in 100 mm dishes and serum-starved for 24 hours. The cells were treated with HF, EGF or ethanol vehicle for 15 mins and immunoblotted with anti-phospho-ERK1/2 and anti-ERK1/2 antibodies. […] MMTV-ARE-Luc reporter plasmid was cotransfected with or without pSG5AR into DU145 cells. After 18 hours, cells were treated with 1 nM DHT, 1 μM HF or both for another 18 hours, and then harvested. Cell lysates were collected and assayed for the luciferase activity.
(§1) 9. […] After 15 min treatment, cells were lysed and immunoblotted with anti-phospho ERK1/2 and antiERK1/2 antibodies. […] EGFR was immunoprecipitated from the cell lysates, and their phosphotyrosine level was determined by anti-phosphotyrosine antibody. All the results were visualized using enhanced chemiluminescence.
198. This assay uses a polyclonal antibody specific against the activated p44/42 MAP kinases (Cell Signaling Technology, Beverly, Mass.), which detects p44 and p42 MAP kinase (ERK1 and 2) only when catalytically activated by dual phosphorylation at Thr202 and Tyr204. DU145 cells were seeded at 1×10^5 cells per 100 mm plate and allowed to attach overnight and then the media were replaced with serum-free DMEM media for 24 hours. The cells were pre-treated with MAP kinase inhibitors, EGFR antibodies, or cycloheximide for 1 hour and followed by HF, EGF, or vehicle treatment. Cells were washed twice with PBS, harvested at indicated times, and lyzed with RIPA buffer for 30 min on ice. The protein concentrations were determined by Bradford assay, and equal amount of protein was resolved by SDS-PAGE. Gels were transferred, immunoblotted with p44/42 MAP kinase antibody (1/1000), and then incubated with secondary antibody. Proteins were visualized by the enhanced chemiluminescence system (NEN™ Life Science Products, Boston, Mass.). P44/42 MAP kinase (total ERK1/2) was blotted as a control.

[2] = test system: MAP kinase in PC-3 stably transfected with AR (PC3-AR2); assay: Immunoblot of phospho-ERK1/2 in PC3-AR2 cells; assay type: cell-based, human; details: 15 mins
[3] = test system: association between Ras and Raf; assay: Ras-Raf immunoprecipitation assay in DU145 cells; assay type: cell-based, human; details: lysates of treated DU145 cells; 1 μM HF, 10 ng/ml EGF, 1 μM 9-cis retinoic acid
Protocol: 8. […] (A) DU145 cells were treated with ethanol (lane 1), 10 ng/ml EGF (lane 2), 1 μM 9-cis retinoic acid (lane 3), and 1 μM HF (lane 4) after 24 hour serum starvation. Cells were lysed and 300 μg of total protein were immunoprecipitated with anti-Ras antibody, pulled-down by a protein A/G agarose beads, and detected with an anti-Raf antibody. (B) DU145 cells were transfected with pCDNA3.1 or pCDNA3.1-Ras N17 as indicated. After 24 hours serum starvation, the cells were treated with different ligands for 20 min, and then harvested. Western blots were performed with antibodies against phosphoERK1/2 and ERK1/2. The density of phospho-ERK1/2 shown as Optical Density (OD) were determined by the Versa Doc Imaging System (Bio-Rad) and quantified by Quantity One software.
200. Serum-stared and treated DU145 cells were lysed with RIPA buffer for 30 min on ice. Lysates were then centrifuiged at 12,000 g for 10 min at 4° C. and protein concentrations were determined by the Bradford assay. 500 μg of cell lysates were incubated for 4 hours with either anti-Ras or anti-EGFR antibody (1/100, Santa Cruz Biotechnology) to the protein-antibody mixture and then added in 20 μl of protein A/G plus-agarose (Santa Cruz Biotechnology) for another 4 hours incubation with constant rotation. The immunoprecipitates were washed four times with cold PBS, resolved by SDS-PAGE, and immunoblotted by anti-Raf-1 antibody, or anti-phospho-tyrosine monoclonal antibody (Oncogene Research, Calbiochem, La Jolla, Calif.). The results were visualized by chemiluminescence.

EGFR = target: T1, EGFR (Homo sapiens, UniProt P00533); assay: EGFR immunoprecipitation and anti-phosphotyrosine immunoblot in DU145 cells; assay type: cell-based; details: 1 μM HF, 20 min
T1 construct: endogenous in cells; host or cells: DU145
T1 sequence (P00533 25-1210): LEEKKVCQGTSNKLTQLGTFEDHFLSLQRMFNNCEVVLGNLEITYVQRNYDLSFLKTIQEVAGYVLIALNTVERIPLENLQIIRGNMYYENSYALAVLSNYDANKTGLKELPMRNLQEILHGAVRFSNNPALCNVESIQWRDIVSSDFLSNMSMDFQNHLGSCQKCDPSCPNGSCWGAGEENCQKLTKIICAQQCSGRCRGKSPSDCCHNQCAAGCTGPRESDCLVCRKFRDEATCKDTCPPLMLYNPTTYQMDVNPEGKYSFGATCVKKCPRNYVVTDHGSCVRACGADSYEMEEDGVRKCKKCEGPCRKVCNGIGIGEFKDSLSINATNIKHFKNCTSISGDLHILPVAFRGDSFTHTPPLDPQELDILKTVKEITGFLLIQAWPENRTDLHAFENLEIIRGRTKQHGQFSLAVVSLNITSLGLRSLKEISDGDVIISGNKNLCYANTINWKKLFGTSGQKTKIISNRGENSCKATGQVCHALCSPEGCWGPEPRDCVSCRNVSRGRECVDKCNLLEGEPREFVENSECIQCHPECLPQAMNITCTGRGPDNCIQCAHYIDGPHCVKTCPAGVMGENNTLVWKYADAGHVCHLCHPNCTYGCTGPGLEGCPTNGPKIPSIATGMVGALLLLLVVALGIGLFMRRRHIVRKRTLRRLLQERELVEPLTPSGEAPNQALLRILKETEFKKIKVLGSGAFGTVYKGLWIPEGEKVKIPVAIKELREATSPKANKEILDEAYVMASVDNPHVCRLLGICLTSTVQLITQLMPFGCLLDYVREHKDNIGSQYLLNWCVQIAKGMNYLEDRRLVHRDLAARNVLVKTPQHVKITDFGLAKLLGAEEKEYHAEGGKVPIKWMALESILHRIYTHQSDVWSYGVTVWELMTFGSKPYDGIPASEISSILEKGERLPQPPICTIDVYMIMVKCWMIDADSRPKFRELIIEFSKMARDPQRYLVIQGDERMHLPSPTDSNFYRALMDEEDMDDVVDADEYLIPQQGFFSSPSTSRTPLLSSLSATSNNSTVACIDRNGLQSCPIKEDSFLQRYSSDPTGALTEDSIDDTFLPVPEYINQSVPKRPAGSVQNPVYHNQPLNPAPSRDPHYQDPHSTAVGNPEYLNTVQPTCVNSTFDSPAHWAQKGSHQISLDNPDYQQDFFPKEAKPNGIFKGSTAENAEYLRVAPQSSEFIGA
Protocol: as §1

[4] = HF at 1 μM, serum-starved DU145 cells

- autophosphorylation of EGFR (EGFR): causes the autophosphorylation of EGFR
SMILES: CC(C)(O)C(=O)Nc1ccc([N+](=O)[O-])c(C(F)(F)F)c1 [HF, hydroxyflutamide]
- cell proliferation (DU145 cells; cells maintained in 10% FBS medium (data not shown)): no significant stimulation of cell proliferation
- cell proliferation (DU145 cells; low serum (0.5% FBS) after serum starvation): stimulate the DU 145 cell growth significant; also recorded: can promote cell proliferation
- activation of MAP kinase as compared to EGF activation [1]: relatively weak
- total MAP kinase (ERK1/2) protein expression ([1]; DU145 cells): no influence
- time to activate MAP kinase [1, 4]: ≤ 15 min
- time to reach maximum MAP kinase activation [1, 4]: 30 min
- MAP kinase activation [2]: activates MAP kinase
- Raf detected in the Ras immunocomplex [3]: detected
